Assay results taken from paper PMC7181827, “A Highly Glucose Tolerant ß-Glucosidase from Malbranchea pulchella (MpBg3) Enables Cellulose Saccharification” (Scientific Reports, 2020).

Test system: T1, MpBgl3
T1 construct: native secreted enzyme purified from culture filtrate (cellobiose-grown), N-glycosylated
Assay: p-nitrophenol release, absorbance at […] nm; SigrafW fit
Type: biochemical, Malbranchea pulchella
Details: McIlvaine buffer pH 6.0, 50 °C

Km: 330 µM
SMILES: O=[N+]([O-])c1ccc(O[C@@H]2O[C@H](CO)[C@@H](O)[C@H](O)[C@H]2O)cc1 [pNPG]
